Format in all cases: cell-based
In data set [1] the target is T1, interaction between the KRS protein and the laminin receptor (LR) (Homo sapiens, UniProt Q15046).
T1 construct: expressed in transfected cells; host or cells: yeast EGY/SH cells
The experiment in a line: Yeast Two Hybrid inhibition of the interaction between the KRS protein and the laminin receptor (LR). As to conditions: 1 μL of 20 mM DMSO solution per 200 μL culture; 30° C., 6 days; absorbance 540 nm; non-treated control = 100%. A digest of the protocol:
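EGY/SH yeast co-transformed with LexA-KRS and B42-LR, diluted in galactose medium to A540 ~0.15–0.2, then cultured 6 days at 30 °C with compound added from 20 mM DMSO stocks. Growth read as A540 and expressed as % proliferation versus untreated control; KRS–AIMP2 and KRS–AIMP3 pairs run identically for specificity.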

In data set [2] the target is T2, binding between KRS and AIMP2 (Homo sapiens, UniProt Q15046).
T2 construct: expressed in transfected cells; host or cells: yeast cells (co-transformed)
T2 sequence (Q15046 whole entry): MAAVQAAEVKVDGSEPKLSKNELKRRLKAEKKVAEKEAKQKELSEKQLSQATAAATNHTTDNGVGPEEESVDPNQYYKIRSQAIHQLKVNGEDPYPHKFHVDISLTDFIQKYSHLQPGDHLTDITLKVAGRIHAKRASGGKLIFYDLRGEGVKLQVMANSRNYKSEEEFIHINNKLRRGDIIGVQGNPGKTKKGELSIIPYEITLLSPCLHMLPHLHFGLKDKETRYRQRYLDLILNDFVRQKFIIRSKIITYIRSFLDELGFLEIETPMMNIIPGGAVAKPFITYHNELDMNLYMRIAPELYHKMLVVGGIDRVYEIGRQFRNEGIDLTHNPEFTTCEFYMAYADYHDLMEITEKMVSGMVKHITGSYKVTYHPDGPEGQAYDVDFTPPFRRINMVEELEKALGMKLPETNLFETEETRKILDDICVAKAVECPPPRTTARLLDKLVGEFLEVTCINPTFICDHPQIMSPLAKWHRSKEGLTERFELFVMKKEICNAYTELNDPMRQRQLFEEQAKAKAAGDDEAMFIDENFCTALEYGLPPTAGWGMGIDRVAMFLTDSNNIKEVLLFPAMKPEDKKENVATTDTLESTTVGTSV
Kind of data set: Yeast Two Hybrid specificity test, LexA-KRS / B42-AIMP2 co-transformed yeast cells. As to conditions: 1 μL of 20 mM DMSO solution per 200 μL culture; 30° C., 6 days; absorbance 540 nm; non-treated control = 100%. A digest of the protocol:
(§1)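 Yeast co-transformed with LexA-KRS and either B42-AIMP2 or B42-AIMP3, diluted in galactose medium to A540 ~0.15-0.2, then given 1 μL of 20 mM DMSO compound stock per 200 μL well. After 6 days at 30 °C, A540 growth expressed as % of untreated control.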

Data set [3] addresses T3, binding between KRS and AIMP3 (Homo sapiens, UniProt Q15046).
T3 construct: expressed in transfected cells; host or cells: yeast cells (co-transformed)
Kind of data set: Yeast Two Hybrid specificity test, LexA-KRS / B42-AIMP3 co-transformed yeast cells. The note with it: 1 μL of 20 mM DMSO solution per 200 μL culture; 30° C., 6 days; absorbance 540 nm; non-treated control = 100%. The procedure, abridged: as §1

Another data set relates to A549 cells. The experiment in a line: Cell Migration Assay (transwell, laminin). As to conditions: Homo sapiens, laminin 10 μg/mL in lower well, test compounds 0.39˜100 μM, 6 hours at 37° C. A digest of the protocol: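 A549 cells in serum-free RPMI1640 migrated 6 h at 37 °C through 8.0 μm-pore polycarbonate membranes toward laminin (10 μg/mL), compound (0.39–100 μM) in both chambers. Migrated cells hematoxylin-stained, counted at three fields (×20); IC50 by non-linear regression.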

Another data set can be described thus: Cytotoxicity Study (WST). As to conditions: human; A549 cells, serum-free RPMI1640, test compounds 0.39˜100 μM, 5 hours + 2 hours WST, absorbance 450 nm. On the procedure:
A549 cells (Korean Cell Line Bank) was added to a 96-well plate in a concentration of 2×10^4 cells per well and then a RPMI1640 medium supplemented with 10% fetal bovine serum was added to each well. After culturing 24 hours, the medium was changed with a serum-free RPMI1640 medium and then test compounds (0.39˜100 μM) were treated. After culturing at 37° C. for 5 hours in a CO2 incubator, 10 μL of a WST reagent (Roche) was added to each well, which was then cultured for additional 2 hours. A microplate reader was used to measure the absorbance at 450 nm. From the absorbance values, each IC50 value was calculated by non-linear regression curve fit using the ‘GraphPad Prism” program.
The cytotoxicity study was performed, using the reduction of WST by the NADH produced by the electron transport system of mitochondria. […] Therefore, the compounds of the present invention have therapeutic activity against a disease associated with cancer cell metastasis through (i) selective inhibition against the binding between KRS and LR and (ii) inhibition of cell migration, rather than non-specific cytotoxicity.

From patent US20150011528A1, “PHENYLIMIDE-CONTAINING BENZOTHIAZOLE DERIVATIVE OF ITS SALT AND PHARMACEUTICAL COMPOSITION COMPRISING THE SAME” (YUHAN CORPORATION, priority 2011, published 2015) come the findings set out here.

T1 sequence (Q15046 whole entry): as above
T3 sequence (Q15046 whole entry): as above

The term IC50 denotes the point on the concentration scale where inhibition reaches its midpoint. Turning to `CC(C(=O)O)n1c(=NC(=O)c2cccc(Cl)c2)sc2c(Cl)cccc21` (centres unmarked) [Example 309, 2-(7-chloro-2-((3-chlorobenzoyl)imino)benzo[d]thiazol-3(2H)-yl)propionic acid], the “Yeast cell proliferation rates KRS-LR (%)” value in data set [1] turned out to be 14.5%. In addition, the “Yeast cell proliferation rates KRS-AIMP2 (%)” value in data set [2] is reported as 95.8%. For the same compound, in data set [3], the “Yeast cell proliferation rates KRS-AIMP3 (%)” value was 101.4%. This compound also returned an IC50 with A549 cells of 12.9 µM. Moreover, the IC50 at 5 h in “Cytotoxicity Study (WST)” turned out to be 134 µM.

As to `COc1cccc2sc(=NC(=O)c3cccc(C(F)(F)F)c3)n(C(C)C(=O)O)c12` (centres unmarked) [Example 283, 2-(4-methoxy-2-(3-(trifluoromethyl)benzoylimino)benzo[d]thiazol-3(2H)-yl)propionic acid], in the data set on A549 cells, the IC50 is 10 µM. In “Cytotoxicity Study (WST)”, the IC50 at 5 h turned out to be 108 µM.

As for `CC(C(=O)O)n1c(=NC(=O)c2cccc(Cl)c2)sc2cc(F)c(F)cc21` (centres unmarked) [Example 289, 2-(2-((3-chlorobenzoyl)imino)-5,6-difluorobenzo[d]thiazol-3(2H)-yl)propionic acid], half-maximal inhibition in the data set on A549 cells (IC50) was put at 9.8 µM. Besides, in “Cytotoxicity Study (WST)”, the concentration for half-maximal inhibition (IC50) at 5 h is 877 µM.

In the case of `CCC(C(=O)O)n1c(=NC(=O)c2cccc(C(F)(F)F)c2)sc2cc(F)c(F)cc21` (centres unmarked) [Example 293, 2-(5,6-difluoro-2-((3-(trifluoromethyl)benzoyl)imino)benzo[d]thiazol-3(2H)-yl)butanoic acid], in the data set with A549 cells, half-maximal inhibition (IC50) was put at 1 µM. In addition, the IC50 at 5 h in the data set “Cytotoxicity Study (WST)” is 144 µM.

Take `CCC(C(=O)O)n1c(=NC(=O)c2cccc(F)c2)sc2cc(F)c(F)cc21` (centres unmarked) [Example 442, 2-(5,6-difluoro-2-((3-fluorobenzoyl)imino)benzo[d]thiazol-3(2H)-yl)butanoic acid]: half-maximal inhibition with A549 cells (IC50) was put at 80 µM. For the same compound, in the data set “Cytotoxicity Study (WST)”, the IC50 at 5 h was found to be 361 µM.

With `CCC(C(=O)O)n1c(=NC(=O)c2ccc([N+](=O)[O-])cc2)sc2ccccc21` (centres unmarked) [Example 81, 2-[2-(4-nitrobenzoylimino)benzo[d]thiazol-3(2H)-yl]butanoic acid], the IC50 at 5 h in the data set “Cytotoxicity Study (WST)” was 828 µM.

For the compound `CC(C(=O)O)n1c(=NC(=O)c2cccc(C(F)(F)F)c2)sc2c(Cl)cccc21` (centres unmarked) [Example 308, 2-(7-chloro-2-((3-(trifluoromethyl)benzoyl)imino)benzo[d]thiazol-3(2H)-yl)propionic acid], in the data set on A549 cells, the IC50 was 6.6 µM. The IC50 at 5 h in the data set “Cytotoxicity Study (WST)” was 267 µM.

Consider `CCC(C(=O)O)n1c2c(sc1=NC(=O)c1cccc(Cl)c1)CCCC2` (centres unmarked) [Example 299, 2-(2-(3-chlorobenzoylimino)-4,5,6,7-tetrahydrobenzo[d]thiazol-3(2H)-yl)butanoic acid], for which the “Yeast cell proliferation rates KRS-LR (%)” value in data set [1] stood at 13.8%. Besides, the “Yeast cell proliferation rates KRS-AIMP2 (%)” value in data set [2] was 92.0%. Also, the “Yeast cell proliferation rates KRS-AIMP3 (%)” value in data set [3] was 90.4%. Besides, in the data set with A549 cells, the IC50 amounted to 7.9 µM. Moreover, in the data set “Cytotoxicity Study (WST)”, the IC50 at 5 h came out at 344 µM.

In turn, `CC(C(=O)O)n1c(=NC(=O)c2cccc(Cl)c2)sc2cc(F)c(C(F)(F)F)cc21` (centres unmarked) [Example 388, 2-(2-((3-chlorobenzoyl)imino)-6-fluoro-5-(trifluoromethyl)benzo[d]thiazol-3(2H)-yl)propionic acid] gave an IC50 in the data set on A549 cells of 37.4 µM. Further, the IC50 at 5 h in “Cytotoxicity Study (WST)” was 368 µM.

For the compound `O=C(O)Cn1c(=NC(=O)c2cccc(C(F)(F)F)c2)sc2ccccc21` [Example 125, 2-[2-(3-(trifluoromethyl)benzoylimino)benzo[d]thiazol-3(2H)-yl]acetic acid], it took 8.4 µM to reach half-maximal inhibition with A549 cells (IC50). Besides, the IC50 at 5 h in the data set “Cytotoxicity Study (WST)” was 7490 µM.

In the data set on A549 cells, `CCC(C(=O)O)n1c(=NC(=O)c2cc(F)cc(F)c2)sc2ccccc21` (centres unmarked) [Example 78, 2-[2-(3,5-difluorobenzoylimino)benzo[d]thiazol-3(2H)-yl]butanoic acid] gave an IC50 of 15.9 µM. Besides, in the data set “Cytotoxicity Study (WST)”, the IC50 at 5 h was found to be 636 µM.

Take `Cc1ccc(C(=O)N=c2sc3cc(C(F)(F)F)ccc3n2CC(=O)O)cc1` [Example 246, 2-(2-((4-methylbenzoyl)imino)-6-(trifluoromethyl)benzo[d]thiazol-3(2H)-yl)acetic acid]: the half-maximal inhibitory concentration (IC50) in the data set with A549 cells stood at 12 µM. For the same compound, in the data set “Cytotoxicity Study (WST)”, the IC50 at 5 h turned out to be 245 µM.

In turn, `CCC(C(=O)O)n1c(=NC(=O)c2cccc(Cl)c2)sc2cc(OC(F)(F)F)ccc21` (centres unmarked) [Example 176, 2-(2-((3-chlorobenzoyl)imino)-6-(trifluoromethoxy)benzo[d]thiazol-3(2H)-yl)butanoic acid] yielded an IC50 with A549 cells of 5.8 µM. For the same compound, the IC50 at 5 h in the data set “Cytotoxicity Study (WST)” is 247 µM.

With `CCC(C(=O)O)n1c(=NC(=O)c2cccc(Cl)c2)sc2cc(F)c(F)cc21` (centres unmarked) [Example 290, 2-(2-((3-chlorobenzoyl)imino)-5,6-difluorobenzo[d]thiazol-3(2H)-yl)butanoic acid], the “Yeast cell proliferation rates KRS-LR (%)” value in data set [1] turned out to be 35.1%. Further, the “Yeast cell proliferation rates KRS-AIMP2 (%)” value in data set [2] came to 87.0%. Also, the “Yeast cell proliferation rates KRS-AIMP3 (%)” value in data set [3] is on record as 99.0%. The half-inhibitory concentration (IC50) in the data set with A549 cells was 3.2 µM. The IC50 at 5 h in the data set “Cytotoxicity Study (WST)” stood at 172 µM.

Turning to `CCC(C(=O)O)n1c(=NC(=O)c2cccc(Cl)c2)sc2ccc(Cl)cc21` (centres unmarked) [Example 361, 2-(5-chloro-2-((3-chlorobenzoyl)imino)benzo[d]thiazol-3(2H)-yl)butanoic acid], the “Yeast cell proliferation rates KRS-LR (%)” value in data set [1] stood at 34.6%. The “Yeast cell proliferation rates KRS-AIMP2 (%)” value in data set [2] was determined as 104.3%. Besides, in data set [3], the “Yeast cell proliferation rates KRS-AIMP3 (%)” value was 108.4%. The compound further registered an IC50 in the data set on A549 cells of 142 µM. In the data set “Cytotoxicity Study (WST)”, the IC50 at 5 h was found to be 581 µM.

In turn, `O=C(O)Cn1c(=NC(=O)c2cccc(C(F)(F)F)c2)sc2c(F)cccc21` [Example 356, 2-(7-fluoro-2-((3-(trifluoromethyl)benzoyl)imino)benzo[d]thiazol-3(2H)-yl)acetic acid] gave an IC50 in the data set with A549 cells of 40.9 µM. Further, the IC50 at 5 h in “Cytotoxicity Study (WST)” turned out to be 1190 µM.

In the case of `CCOc1ccc2c(c1)sc(=NC(=O)c1cccc(Cl)c1)n2C(CC)C(=O)O` (centres unmarked) [Example 56, 2-{2-[(3-chlorobenzoyl)imino]-6-ethoxybenzo[d]thiazol-3(2H)-yl}butanoic acid], the “Yeast cell proliferation rates KRS-LR (%)” value in data set [1] is listed as 31.2%. The “Yeast cell proliferation rates KRS-AIMP2 (%)” value in data set [2] amounted to 103.3%. Also, the “Yeast cell proliferation rates KRS-AIMP3 (%)” value in data set [3] is 104.7%. For the same compound, the IC50 with A549 cells stood at 2.7 µM. Further, the IC50 at 5 h in the data set “Cytotoxicity Study (WST)” is 95.5 µM.

Compound `Cc1ccc(C(=O)N=c2sc3c(C(F)(F)F)cccc3n2C(C)C(=O)O)cc1` (centres unmarked) [Example 98, 2-[2-(4-methylbenzoylimino)-7-(trifluoromethyl)benzo[d]thiazol-3(2H)-yl]propionic acid] came in with an IC50 in the data set with A549 cells of 5.2 µM. Also, in “Cytotoxicity Study (WST)”, the IC50 at 5 h was found to be 74.9 µM.
